This note sets out measurements from US20090179638A1, “ASSAY FOR IDENTIFYING INHIBITORS OF NEURONAL APOPTOTIC PATHWAYS” (AEGERA THERAPEUTICS INC., priority 2006, published 2009).

For one assay, the system named is HSP90 protein. The assay can be described thus: STD 1H NMR spectroscopy binding to HSP90. Conditions: compound to protein ratio approximately 100:1, 20 mM sodium phosphate buffer pH 6.7. As to the method:
(§1) FIG. 9 is a STD 1H NMR Spectrum of Compound 1 and 20 with HSP90 protein. STD NMR experiments were performed at 19° C. on a Varian INNOVA 500 MHz spectrometer equipped with a triple resonance HCN cold probe. A 1D saturation transfer difference pulse sequence with internal subtraction via phase cycling was employed. Residual HDO signal was removed using a W5 WATERGATE pulse sequence, with a […] interpulse delay. On resonance irradiation of the protein was performed at −0.5 ppm, with off-resonance irradiation at 34 ppm. The irradiation power was (g/2p)B1=93 Hz applied through a train of 50 ms eburp1 pulses with a 1 ms delay between the pulses. The total presaturation time was 5.1 s. The relaxation delay was set to 0.1 s. A 30 ms spin-lock pulse with a strength of (g/2p)B1=4600 Hz was used to eliminate background protein signals. The total number of scans was between 1536, with a sweep width of 16 ppm. Spectra were multiplied by a 1 Hz exponential line-broadening function prior to Fourier transform. Compounds 1 (85 uM) and 20 (85 uM) and HSP90 protein (0.85 uM) in 20 mM sodium phosphate buffer (pH 6.7) was used. A) STD 1H NMR spectrum, B) preset reference, and C) STD reference-no saturation/difference.
as §1, with “STD” for “FIG. 9 is a STD 1H NMR Spectrum of Compound 1 and 20 with HSP90 protein. STD”, “employed (Mayer and Meyer, JACS, 2001, 123, 6108-6117).” for “employed.”, “delay (Liu et. al, J. Magn. Res., 1998, 132, 125).” for “delay.”, “1536-2048,” for “1536,”, “transform.” for “transform. Compounds 1 (85 uM) and 20 (85 uM) and HSP90 protein (0.85 uM) in 20 mM sodium phosphate buffer (pH 6.7) was used. A) STD 1H NMR spectrum, B) preset reference, and C) STD reference-no saturation/difference.”
The compound to protein ratio was fixed at approximately 100:1 in 20 mM sodium phosphate buffer (pH 6.7). Compound 20 was used as a reference compound to compare binding affinities of various compounds to HSP90 by comparing the relative intensity of NOE effects in the spectra of compounds 1 and 20 (see FIG. 9), compounds 2 and 20, compounds 5 and 20, compounds 13 and 20, and compounds 15 and 20 (near equamolar quantities of each) in the presence of HSP90 protein. Using the NOE signals for the imidazole proton, and comparing peak heights, the relative kd of the compound pairs were compared (see Meyer and Peters, T. Angew. Chem. Int. Ed. 2003, 42, 864). The kds of the compound pairs ranged from 1:1 to 8:1. These differences in binding affinities correlated to the potency of each respective compound's ability to rescue SCG neurons from NGF withdrawal as previously reported.

The next assay has as its system JNK. The assay can be described thus: Endogenous phosphorylation of GST-c-Jun in PC12rtTA cells. The class given is cell-based. As to conditions: for expression of the GST-c-Jun fusion construct: PC12rtTA cells. As to the method:
FIGS. 7A, 7B and 7C are photographs of Western blots which illustrate that compound 1 analogues inhibit JNK activation and induce expression of HSP70. A: PC12^rtTA cells were transfected with RNAi directed against HSP70 or with control RNA and then 24 hours later were infected with 5 MOI of AdNRG or 50 MOI of the control virus AdLacZ. At time of infection, the cells were treated with 40 μM compound 2 or with a vehicle control, as indicated. After 30 hours, cells were lysed, normalized for protein levels, and analyzed for phosphorylated Jun, HSP70, HSP25 NRAGE and actin levels. B: PC12^rtTA cells were transfected with an expression construct driving GST-Jun. After 24 hours, cells were infected with 5 MOI of AdNRG or 50 MOI of the control virus AdLacZ or were left uninfected. After a further 24 hours, uninfected cells were left untreated or were exposed to 10 ng/ml TNF or 300 mM sorbitol for 15 minutes. Cells were then lysed, normalized for protein levels, and GST-jun was recovered by glutathione pullout and analyzed for phosphorylation using a antibody directed against c-Jun pSer63 by immunoblotting. Equivalent pullout of GST-Jun was confirmed by immunoblotting with an antibody directed against c-Jun and GST. C: PC12^rtTA cells were co-transfected with an expression construct driving GST-Jun and with RNAi directed against HSP70 or with control RNA, as indicated. After 24 hours, cells were infected with 5 MOI of AdNRG or 50 MOI of the control virus AdLacZ. At time of infection, the cells were treated with 40 μM compound 2 or with a vehicle control, as indicated. After 30 hours, cells were lysed, normalized for protein levels, and GST-jun was recovered by glutathione pullout and analyzed for phosphorylation using an antibody directed against c-Jun pSer63 by immunoblotting. Equivalent pullout of GST-Jun was confirmed by immunoblotting with an antibody directed against total Jun. Lysates levels of HSP70, HSP25, HSP40, NRAGE and actin was determined by immunoblot. […]
A causal link between HSP70 induction and JNK suppression, circumventing the problem of low-transfection efficiency of the PC12rtTA cells, was developed to assess JNK pathway activation specifically in the RNAi transfected subpopulation of PC12rtTA cells. […] We anticipated that the GST-c-Jun fusion protein would be readily recoverable from lysates and its phosphostatus would provide a sensitive read-out that reflects the level of JNK pathway activation in the subpopulation of cells which were transfected. […] GST-c-Jun was then recovered from lysates and its phosphostatus determined by immunoblotting. […] Thus, the phosphostatus of the GST-jun fusion protein provided a sensitive read-out that reflects the level of JNK pathway activation in transfected cells. […]

For the compound `NS(=O)(=O)c1nn2cc(-c3ccccc3)nc2s1` [Compound 1], the “binding to HSP90 protein by STD 1H NMR” value with HSP90 protein is reported as “directly bind”. In addition, the “expression of the GST-c-Jun fusion construct” value in the assay on JNK is recorded as “significantly increased”.
For the compound `NS(=O)(=O)c1nn2cc(-c3ccc(N4CCOCC4)cc3)nc2s1` [Compound 2], the “binding to HSP90 protein by STD 1H NMR” value with HSP90 protein is listed as “directly bind”. The “ability to block GST-jun phosphorylation” value in the assay with JNK (40 μM, RNAi directed against HSP70) was “almost completely lost”. Besides, in the assay with JNK (40 μM, control siRNA), the “AdNRG-induced phosphorylation of GST-c-Jun” value is on record as “strongly inhibited”. The “expression of the GST-c-Jun fusion construct” value in the assay on JNK is reported as “without altering”.
